Data on 2 compounds can be found in article PMC10266261, “A High-Throughput Approach to Identify Specific Neurotoxicants / Developmental Toxicants in Human Neuronal Cell Function Assays” (ALTEX, 2018).

The subject of series [1] is LUHMES cells. The series can be described thus: cells. The class given is cell-based, human. As to conditions: for EC50: Homo sapiens; for classification in the NeuriTox screen: up to 20 μM, hit = NA decreased at concentrations not affecting viability. The method, then:
For the NeuriTox test (= UKN4), LUHMES (Lund human mesencephalic) cells were characterized and cultured as described in detail earlier ([Krug et al., 2013]; [Lotharius et al., 2005]; [Scholz et al., 2011]). Briefly, cells were maintained in proliferation medium (PM: AdvDMEM/F12 supplemented with 2 mM glutamine, 1x N2 supplement and 40 ng/ml fibroblast growth factor-2) in PLO/fibronectin coated flasks (50 μg/ml poly-L-ornithine (PLO) and 1 μg/ml fibronectin). For differentiation, cells were seeded at a density of 46,000 cells/cm^2 in PM. After 24 h, they were switched to differentiation medium (DM) containing AdvDMEM/F12 supplemented with 2 mM glutamine, 1x N2 supplement, 2.25 μM tetracycline, 1 mM dibutyryl 3’,5’-cyclic adenosine monophosphate (cAMP), and 2 ng/ml recombinant human glial cell derived neurotrophic factor (GDNF).
For the NeuriTox test, LUHMES cells were differentiated for 48 h and seeded into 96 well plates at a density of 100,000 cells/cm^2 in a volume of 90 μl DM without cAMP and GDNF. Treatment was initiated applying 10 μl of a 10x concentrated treatment solution one hour after seeding. At 24 h after treatment, staining mix (SM) was applied (final concentrations: 1 μg/ml H-33342, 1 μM calcein-AM).
(§1) Image acquisition was performed with an ArrayScan VTI HCS (high content imaging) microscope (Cellomics, Waltham, MA, USA).
The procedure was applied as detailed earlier ([Hoelting et al., 2016]; [Stiegler et al., 2011]). After automated imaging, an algorithm was applied that identified the neuronal somata (based on identified nuclei) and subtracted the somatic area from the total neuronal area to obtain the neurite area (NA), i.e., the number of pixels per field covered by neurites. Viability analysis was performed on the same pictures using combined information from H-33342 and calcein channels. Cells with normal-sized nuclei that were calcein-positive were counted as live cells, whereas H-33342 single-positive cells were counted as dead cells. Viability (V) was expressed as percentage of live cells relative to control.
(§2) Neurite area (NA) and viability (V) were always expressed as percentage of the DMSO control. In a first step, matched technical replicates were averaged. […] Curve fitting was performed employing a 4-parameter log-logistic function with least squares fit. The upper asymptote of the fit was forced to 100%, the lower asymptote was variable. The variation of DMSO controls was calculated from pooled values of DMSO controls over several experiments.
For calculation of the benchmark concentration values (BMC), a benchmark response (BMR) of three standard deviations of DMSO solvent controls of all assay plates (= “3 x noise level”) was used. […] To identify specific effects on neurite outgrowth, the EC50 ratio of EC50(viability)/EC50(neurite area) was calculated. The NeuriTox test system has a specificity threshold ratio of 4, the PeriTox test system has one of 3 ([Hoelting et al., 2016]; [Krug et al., 2013]).
If V was not affected at the highest tested concentration (HTC), then 4 x HTC was used as surrogate EC50(V) (marked with ♦; for EC25 calculation, the HTC was doubled in this case) ([Krug et al., 2013]).
For the actual screening procedure, a defined workflow was established that contained several pre-determined decision points. All compounds were tested at 1:1000 dilutions of their stock concentration, and at subsequent 3-fold dilution levels. For most compounds, the stock was 20 mM, so that the test concentrations were 20 μM, 6.7 μM, 2.2 μM, 0.7 μM, 0.25 μM, 82 nM, 27 nM, 9 nM, 3 nM, and 1 nM. For 2,2’,4,4’,5,5’-hexabromodiphenyl-ether, chrysene, dibenz(a,h)anthracene, bis(tributyltin) oxide, benzo[g,h,i]perylene, and 2,3,7,8-tetrachlorodibenzo-p-dioxin lower stock concentrations were used.

Series [2] concerns immature human dorsal root ganglia neurons. The series can be described thus: cells. The class given is cell-based. As to conditions: for EC50: Homo sapiens, Neuron; for classification in the PeriTox screen: three independent screen runs, up to 20 μM. The method, then:
The PeriTox test (= UKN5) is based on cells differentiated from the H9 human embryonic stem cell (hESC) line (WA09 line), which was obtained from WiCell (Madison, WI, USA). The import of cells and the experiments were authorized under license no. 170–79-1–4-27 (Robert Koch Institute, Berlin, Germany).
After one hour, 25 μl PDM with 4x concentrated serial dilutions of the test compounds was added to the cells. At 23 h after treatment, the cells were stained with SM and incubated for one additional hour at 37°C.
as §1
After automated imaging, an algorithm was applied that identified the neuronal somata (based on identified nuclei) and subtracted the somatic area from the total neuronal area to obtain the neurite area (NA), i.e., the number of pixels per field covered by neurites. […] Viability (V) was expressed as percentage of live cells relative to control.
as §2
For calculation of the benchmark concentration values (BMC), a benchmark response (BMR) of three standard deviations of DMSO solvent controls of all assay plates (= “3 x noise level”) was used. […] To identify specific effects on neurite outgrowth, the EC50 ratio of EC50(viability)/EC50(neurite area) was calculated.
This method uses human immature dorsal root ganglia neurons (iDRG) that are produced from pluripotent stem cells that are still in a phase of neurite growth. Like in the NeuriTox assay, exposure to toxicants in this test is for 24 h, and readouts for viability (V) and neurite area (NA) are also conducted in a similar way (Fig. 7A).

For series [3], the system named is cardiomyocytes. As to conditions: specific = cardio-physiologic parameters affected after 30 min at three-fold lower concentration than viability and no effect on viability after 24 h; ref Sirenko et al., 2017; cited from earlier work.
The mark [4] stands for this setting: 24 h, read-out: EC50(NA), neurite area.
Setting [5] is: read-out: EC50(V), viability, surrogate marked ♦.

Like-named read-outs stand apart in the source and are kept apart here.

For the compound `COc1ccc2cc3[n+](cc2c1OC)CCc1cc2c(cc1-3)OCO2` [Berberine chloride], the EC50 is 23.9 µM in series [1] (hit confirmation / re-testing, adjusted concentration range, 24 h, read-out: EC50(NA), neurite area); 126 µM in series [1] (hit confirmation, adjusted concentration range, 24 h, read-out: EC50(V), viability); 11.6 µM in series [2] (hit confirmation, 24 h, read-out: EC50(NA), neurite area); 165 µM in series [2] (hit confirmation, V not affected at HTC: 4 x HTC used as surrogate, read-out: EC50(V), viability, surrogate marked ♦). In addition, in series [1] (screen, 24 h), the “LOAEL for neurite area (lowest tested concentration with significant reduction)” value was determined as 20 µM. In addition, the “classification in the NeuriTox screen” value in series [1] (screen, 24 h) is “active hit compounds”. In addition, the “classification in the PeriTox screen” value in series [2] is listed as “active hit compounds”. In series [3], the “classification in the cardiotoxicity test method” value was “generally cytotoxic”.

As for `C=C(C)[C@H]1Cc2c(ccc3c2O[C@@H]2COc4cc(OC)c(OC)cc4[C@@H]2C3=O)O1` [Rotenone], the EC50 in series [1] (setting [4]) was 0.5 µM; in series [1] (setting [5]) it was 40 µM; in series [2] (setting [4]) it was 0.05 µM; in series [2] (setting [5]) it was 16.5 µM. Besides, the “classification in the NeuriTox screen” value in series [1] (screen, 24 h) is reported as “active hit compounds”. The “ratio EC50(V)/EC50(NA)” value in series [2] (hit confirmation, ≥ 3 = specific hit) turned out to be 330. In addition, in series [2], the “classification in the PeriTox screen” value is “active hit compounds”. The “classification in the cardiotoxicity test method” value in series [3] is reported as “generally cytotoxic”.
